Measurements reported in patent publication US6057314A, “Low molecular weight bicyclic thrombin inhibitors” (Biochem Pharma Inc., priority 1997, dated 2000).
pKi: −log10 of the molar value. Values joined by “and” are separate entries in the source; they are usually repeats but may differ in a detail not shown here. Equal entries are not always repeated. Where two headings read alike, the source gives them in different places. Values belong to the compound of their own block, whether it stands above or below them.

Experiments:
human thrombin = human thrombin (Homo sapiens, UniProt P00734); experiment: Inhibition of amidolytic activity of human thrombin (Ki, fluorogenic substrate Tos-Gly-Pro-Arg-AMC); format: biochemical
Experimental: In an assay to determine the inhibitory dissociation constant, Ki, for a given compound, a chromogenic or fluorogenic substrate of thrombin would be added to a solution containing a test compound and thrombin; the resulting catalytic activity of the enzyme would be spectrophotometrically determined. This type of assay is well known to those skilled in the art.
Determination of K1 Values for Heterocyclics
The steady-state velocity was then measured for a few minutes. The compounds of this invention were also pre-incubated with thrombin for 20 minutes at room temperature before adding the substrate.

carotid artery in rats = experiment: FeCl3 induced carotid arterial injury model (arterial thrombosis) in rats, time to occlusion; format: in vivo, rat (Sprague-Dawley); settings: Table 2
Experimental: Arterial Thrombosis Model
FeCl3 Induced Carotid Arterial Injury Model
Animals were laid on a 37° C. heating pad. The carotid artery was exposed through a midline cervical incision. Careful blunt dissection was used to isolate the vessel from the carotid sheath. […] A temperature probe (Physitemp*MT23/3) was placed between one of the pieces of tubing and the artery. Injury was induced by topical application on the carotid artery above the temperature probe of a small disc (3 mm dia.) of Whatman* No. 1 filter paper previously dipped in a 35% solution of FeCl3 […]. The vessel temperature was monitored for 60 minutes after application of FeCl3 as an indication of blood flow.
The time between the FeCl3 application and the time at which the vessel temperature decreased abruptly (>2.4° C.) was recorded as the time to occlusion of the vessel. Inhibitor compounds were given as an iv bolus (mg/kg) followed immediately by an iv infusion (μg/kg/min. via femoral vein). The dose of inhibitor needed to double the time to occlusion in comparison to control animals in which injury was induced in the absence of inhibitor was determined.

[1] = ivb + inf 0.75-50 (iv bolus mg/kg, infusion μg/kg/min)

SMILES: N=C(N)NCCCC(NC(=O)[C@@H]1CS[C@@H]2CC[C@@H](CCCC3CCCCC3)C(=O)N21)C(=O)c1nccs1 (single isomer, unassigned) [Compound 0265a]
- pKi (human thrombin; Table 2, read-out: Ki): 8.40
- M.O.T (min)+/-sem (carotid artery in rats; [1]): 21.5 ± 10 min

SMILES: N=C(N)NCCCC(NC(=O)[C@@H]1CS[C@@H]2CC[C@@H](CCCC3CCCCC3)C(=O)N21)C(=O)c1nccs1 (single isomer, unassigned) [Compound 0265b]
- pKi (human thrombin; Table 2, read-out: Ki): 7.74
- M.O.T (min)+/-sem (carotid artery in rats; [1]): 14.83 ± 2.3 min

SMILES: N=C(N)NCCCC(NC(=O)C1CSC2CCC(N3C(=O)c4ccccc4C3=O)C(=O)N21)C(=O)c1nccs1 (single isomer, unassigned) [Compound 0295a]
- pKi (human thrombin; Table 2, read-out: Ki): 5.82
- M.O.T (min)+/-sem (carotid artery in rats; [1]): 20 ± 1 min

SMILES: N=C(N)NCCCC(NC(=O)C1CSC2CCC(N3C(=O)c4ccccc4C3=O)C(=O)N21)C(=O)c1nccs1 (single isomer, unassigned) [Compound 0295b]
- M.O.T (min)+/-sem (carotid artery in rats; [1]): 19 ± 2.7 min

SMILES: N=C(N)NCCCC(NC(=O)[C@@H]1CSC2CC[C@H](NC(=O)CCc3ccccc3)C(=O)N21)C(=O)c1nccs1 (single isomer, unassigned) [Compound 0305a]
- pKi (human thrombin; Table 2, read-out: Ki): 6.66

SMILES: N=C(N)NCCCC(NC(=O)[C@@H]1CSC2CC[C@H](NC(=O)CCc3ccccc3)C(=O)N21)C(=O)c1nccs1 (single isomer, unassigned) [Compound 0305b]
- pKi (human thrombin; Table 2, read-out: Ki): 4.92

SMILES: N=C(N)NCCCC(NC(=O)C1CSC2CCC(NC(=O)CCc3ccccc3)C(=O)N21)C(=O)c1nccs1 (stereo not drawn) [0315a + b]
- pKi (human thrombin; Table 2, read-out: Ki): 7.35

SMILES: N=C(N)NCCCC(NC(=O)[C@@H]1CSCC2CC[C@@H](Cc3ccccc3)C(=O)N21)C(=O)c1nccs1 (stereo partly drawn) [0925a + b]
- pKi (human thrombin; Table 2, read-out: Ki): 8.00
- M.O.T (min)+/-sem (carotid artery in rats; [1]): 19.6 ± 0.2 min

SMILES: N=C(N)NCCCC(NC(=O)[C@@H]1CSC2CC[C@@H](Cc3ccccc3)C(=O)N21)C(=O)CCC(=O)O (stereo partly drawn) [Compound 0095, 6S-benzylhexahydro-5-oxo-5H-thiazolo[3,2-a]pyridine-3R-carboxamido((propanoic acid)ketoarginine)]
- pKi (human thrombin; Table 1, read-out: Ki (inhibitory dissociation constant for human thrombin)): 4.59

SMILES: N=C(N)NCCCC(NC(=O)[C@@H]1CS[C@H]2CC[C@@H](Cc3ccccc3)C(=O)N21)C(=O)c1nc2ccccc2s1 (stereo partly drawn) [Compound 0210, 6-Benzyl-5-oxo-hexahydro-thiazolo[3,2-a]pyridine-3-carboxylic acid[1-(benzothiazole-2-carbonyl)-4-guanidino-butyl]-amide]
- pKi (human thrombin; Table 2, read-out: Ki): 8.10
- M.O.T (min)+/-sem (carotid artery in rats; [1]): 20.13 ± 3.4 min

SMILES: CC12CCC(CCc3ccccc3)C(=O)N1C(C(=O)NC(CCCNC(=N)N)C(=O)c1nc3ccccc3s1)CS2 (stereo not drawn) [Compound 0225, 8a-Methyl-5-oxo-6-phenethyl-hexahydro-thiazolo[3,2-a]pyridine-3-carboxylic acid[1-(benzothiazole-2-carbonyl)-4-guanidino-butyl]-amide]
- M.O.T (min)+/-sem (carotid artery in rats; [1]): 23 ± 7 min

SMILES: C[C@]12CC[C@@H](Cc3ccc4nc(C(F)(F)F)ccc4c3)C(=O)N1[C@H](C(=O)NC(CCCNC(=N)N)C(=O)c1nc3ccccc3s1)CS2 (stereo partly drawn) [Compound 0240, 8a-Methyl-5-oxo-6-(2-trifluoromethyl-quinolin-6-ylmethyl)-hexahydro-thiazolo[3,2-a]pyridine-3-carboxylic acid[1-(benzothiazole-2-carbonyl)-4-guanidino-butyl]-amide]
- pKi (human thrombin; Table 2, read-out: Ki): 7.74
- M.O.T (min)+/-sem (carotid artery in rats; [1]): 17 ± 2.6 min

SMILES: N=C(N)NCCCC(NC(=O)[C@@H]1CS[C@@H]2CC[C@@H](Cc3ccccc3)C(=O)N21)C(=O)c1nccs1 (stereo partly drawn) [Compound 0245, 6-Benzyl-5-oxo-hexahydro-thiazolo[3,2-a]pyridine-3-carboxylic acid[4-guanidino-1-(thiazole-2-carbonyl)butyl]-amide]
- pKi (human thrombin; Table 2, read-out: Ki): 8.30 and 8.10
- M.O.T (min)+/-sem (carotid artery in rats; ivb + inf 0.5-30 (iv bolus mg/kg, infusion μg/kg/min)): 27 ± 3 min
- M.O.T (min)+/-sem (carotid artery in rats; [1]): 22.6 ± 2.6 min

SMILES: Cn1ccnc1C(=O)C(CCCNC(=N)N)NC(=O)[C@@H]1CS[C@@H]2CC[C@@H](Cc3ccccc3)C(=O)N21 (stereo partly drawn) [Compound 0255, 6-Benzyl-5-oxo-hexahydro-thiazolo[3,2-a]pyridine-3-carboxylic acid[4-guanidino-1-(1-methyl-1H imidazole-2-carbonyl)butyl]-amide]
- pKi (human thrombin; Table 2, read-out: Ki): 6.30

SMILES: CC12CCC(Cc3ccccc3)C(=O)N1C(C(=O)NC(CCCNC(=N)N)C(=O)c1nccs1)CS2 (stereo not drawn) [Compound 0260, 6-Benzyl-8a-methyl-5-oxo-hexahydro-thiazolo[3,2-a]pyridine-3-carboxylic acid[4-guanidino-1-(thiazole-2-carbonyl)-butyl]-amide]
- M.O.T (min)+/-sem (carotid artery in rats; [1]): 14.83 ± 0.2 min

SMILES: CC12CCC(Cc3ccc4nc(C(F)(F)F)ccc4c3)C(=O)N1C(C(=O)NC(CCCNC(=N)N)C(=O)c1nccs1)CS2 (stereo not drawn) [Compound 0285, 8a-Methyl-5-oxo-6-(2-trifluoromethyl-quinolin-6-ylmethyl)-hexahydro-thiazolo[3,2-a]pyridine-3-carboxylic acid[4-guanidino-1-(thiazole-2-carbonyl)-butyl]-amide]
- M.O.T (min)+/-sem (carotid artery in rats; [1]): 11.33 ± 1.34 min

SMILES: N=C(N)NCCCC(NC(=O)C1CSC2CCC(NC(=O)CCc3ccccc3)C(=O)N21)C(=O)c1nccs1 (stereo not drawn) [Compound 0315b]
- pKi (human thrombin; Table 2, read-out: Ki): 8.00
- M.O.T (min)+/-sem (carotid artery in rats; [1]): 30.33 ± 8.4 min

More lines, main results first:

- pKi (human thrombin; Table 2, read-out: Ki): 8.15
SMILES: N=C(N)NCCCC(NC(=O)[C@@H]1CSC[C@H]2CC[C@@H](Cc3ccccc3)C(=O)N21)C(=O)c1nccs1 (single isomer, unassigned) [Compound 0925a]
- M.O.T (min)+/-sem (carotid artery in rats; [1]): 20.3 ± 3.5 min

- pKi (human thrombin; Table 2, read-out: Ki): 7.52
SMILES: N=C(N)NCCCC(NC(=O)[C@@H]1CSC[C@H]2CC[C@@H](Cc3ccccc3)C(=O)N21)C(=O)c1nccs1 (single isomer, unassigned) [Compound 0925b]

- pKi (human thrombin; Table 2, read-out: Ki): 7.80
SMILES: N=C(N)NCCCC(NC(=O)[C@@H]1CSC[C@H]2CC[C@@H](CCc3ccccc3)C(=O)N21)C(=O)c1nccs1 (single isomer, unassigned) [Compound 0940a]
- M.O.T (min)+/-sem (carotid artery in rats; [1]): 15.2 ± 0.82 min

- pKi (human thrombin; Table 2, read-out: Ki): 6.80
SMILES: N=C(N)NCCCC(NC(=O)[C@@H]1CSC[C@H]2CC[C@@H](CCc3ccccc3)C(=O)N21)C(=O)c1nccs1 (single isomer, unassigned) [Compound 0940b]

- pKi (human thrombin; Table 2, read-out: Ki): 6.82
SMILES: N=C(N)NCCCC(NC(=O)[C@@H]1CS(=O)(=O)C[C@H]2CC[C@@H](Cc3ccccc3)C(=O)N21)C(=O)c1nccs1 (single isomer, unassigned) [Compound 0950a]

- pKi (human thrombin; Table 2, read-out: Ki): 6.00
SMILES: N=C(N)NCCCC(NC(=O)[C@@H]1CS(=O)(=O)C[C@H]2CC[C@@H](Cc3ccccc3)C(=O)N21)C(=O)c1nccs1 (single isomer, unassigned) [Compound 0950b]

- pKi (human thrombin; Table 2, read-out: Ki): 9.22
SMILES: N=C(N)NCCCC(NC(=O)[C@@H]1CC[C@H]2CN(C(=O)CCc3ccccc3)CC(=O)N21)C(=O)c1nccs1 (stereo partly drawn) [Compound 0340, 4-Oxo-2-(3-phenyl-propionyl)-octahydro-pyrrolo[1,2-a]-pyrazine-6-carboxylic acid [4-guanidino-1-(thiazole-2-carbonyl)-butyl]-amide]
- M.O.T (min)+/-sem (carotid artery in rats; ivb + inf 0.25-20 (iv bolus mg/kg, infusion μg/kg/min)): 36+/-9,6 min

- pKi (human thrombin; Table 2, read-out: Ki): 8.70
SMILES: Cc1cnc(C(=O)C(CCCNC(=N)N)NC(=O)[C@@H]2CC[C@H]3CN(C(=O)CCc4ccccc4)CC(=O)N32)s1 (stereo partly drawn) [Compound 0345, 4-Oxo-2-(3-phenyl-propionyl)-octahydro-pyrrolo[1,2-a]pyrazine-6-carboxylic acid[4-guanidino-1-(5-methyl-thiazole-2-carbonyl)-butyl]-amide]
- M.O.T (min)+/-sem (carotid artery in rats; [1]): 50 ± 5.86 min

- pKi (human thrombin; Table 2, read-out: Ki): 6.92
SMILES: N=C(N)NCCCC(NC(=O)[C@@H]1CSCC2CC[C@H](Cc3ccccc3)C(=O)N21)C(=O)c1nccs1 (stereo partly drawn) [Compound 0935, 7-Benzyl-6-oxo-octahydro-pyrido[2,1-c][1,4]thiazine-4-carboxylic acid[4-guanidino-1-(thiazole-2-carbonyl)butyl]-amide]
